Laboratory results as given in article PMC11062899, “De novo development of small cyclic peptides that are orally bioavailable” (Nature Chemical Biology, 2023).
“And” between values parts separate entries of the source, which are not always exact repeats. Equal entries are not always repeated. Where two headings read alike, the source gives them in different places.

Columns and labels:
[1] = Passive artificial membrane permeability (PAMPA)
human α-thrombin = human α-thrombin (Homo sapiens, UniProt P00734); test: Protease inhibition, Ki for human α-thrombin (fluorogenic substrate Z-Gly-Gly-Arg-AMC); format: biochemical; details: human alpha thrombin; for Slope normalized to DMSO (proteolytic substrate cleavage over time): replicates R1-R3
In short: (§1)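 Inhibition was measured as AMC fluorescence from 50 μM substrate, monitored for 30 min at 25 °C, relative to a peptide-free control. Human and rat enzymes were present at 2 nM and 3 nM final, respectively, in 50 mM Tris-HCl pH 7.4, 150 mM NaCl, 10 mM MgCl2, 1 mM CaCl2. Ki derives from fitted IC50 via Cheng–Prusoff.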

[2] = Peptide stability in simulated intestinal fluid (SIF); format: in vitro ADME, porcine; details: simulated gi fluid; 8 h, 37 °C, pH 6.8; read-out: Proteolytic stability: SIF (8 h) % remaining
In short: (§2)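 Peptide from a 1 mM DMSO stock was added to fluid pre-warmed at 37 °C. SGF was pH 1.2 NaCl with porcine pepsin (0.32 g per 100 ml), and SIF was pH 6.8 potassium phosphate with porcine pancreatin (1 g per 100 ml). Supernatant peptide was quantified by LC–MS, with residual expressed as T1/T0.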

porcine pancreatin = test: as above; format: in vitro ADME; details: after 8 h vs 0 h (TIC)
In short: as §2

rat α-thrombin = molecular target: T1, rat α-thrombin (Rattus norvegicus, UniProt P18292); test: Protease inhibition, Ki for rat α-thrombin (fluorogenic substrate Z-Gly-Gly-Arg-AMC); format: biochemical; details: rat alpha thrombin; for Slope normalized to DMSO (proteolytic substrate cleavage over time): replicates R1-R3
T1 construct: rat α-thrombin (Molecular Innovations) were used at final concentrations of 2 nM and 3 nM; purchased Molecular Innovations
In short: as §1

porcine pepsin = molecular target: T2, porcine pepsin (Sus scrofa, UniProt P00791); test: Peptide stability in simulated gastric fluid (SGF); format: in vitro ADME
T2 construct: 0.32 g of porcine pepsin (Sigma-Aldrich, P7125) was dissolved under gentle agitation; purchased Sigma-Aldrich P7125
In short: as §2

T2 sequence (P00791 60-385): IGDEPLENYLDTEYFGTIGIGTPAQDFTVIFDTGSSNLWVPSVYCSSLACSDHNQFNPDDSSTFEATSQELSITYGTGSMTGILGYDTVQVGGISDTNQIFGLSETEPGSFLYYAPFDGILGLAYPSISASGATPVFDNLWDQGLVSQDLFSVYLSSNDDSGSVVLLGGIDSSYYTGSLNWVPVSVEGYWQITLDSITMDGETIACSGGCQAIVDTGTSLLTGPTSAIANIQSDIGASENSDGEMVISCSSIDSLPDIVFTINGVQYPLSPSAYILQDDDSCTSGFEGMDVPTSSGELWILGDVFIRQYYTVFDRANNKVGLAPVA

PAMPA permeability: % permeability ([1]; 50 μM, 12–18 h, acceptor concentration relative to equilibrium): 37 ± 1% | Papp at 50 μM ([1]; PAMPA, pH 7.4): 4.57 ×10⁻⁶ cm/s | Permeability% Average ([1]; top well sample vs theoretical equilibrium sample (TIC), average of R1-R3): 37.0% | Permeability% ([1]; top well sample vs theoretical equilibrium sample (TIC), single replicates R1-R3): 36.96% and 38.34% and 35.81% | Ki (human α-thrombin; average of R1-R3, read-out: Ki Average, human alpha thrombin inhibition): 21 nM | Slope normalized to DMSO (proteolytic substrate cleavage over time) (human α-thrombin; peptide 1.02E-03 uM): 77.8 and 82.6 and 87.7 | Slope normalized to DMSO (proteolytic substrate cleavage over time) (human α-thrombin; peptide 1.27E-04 uM): 85.2 and 86.3 and 97.5 | Slope normalized to DMSO (proteolytic substrate cleavage over time) (human α-thrombin; peptide 1.30E-01 uM): 23.7 and 29.7 and 31.1 | Slope normalized to DMSO (proteolytic substrate cleavage over time) (human α-thrombin; peptide 1.59E-05 uM): 99.4 and 93.2 and 99.6 | Slope normalized to DMSO (proteolytic substrate cleavage over time) (human α-thrombin; peptide 1.63E-02 uM): 62.9 (2×) and 53.3 | Slope normalized to DMSO (proteolytic substrate cleavage over time) (human α-thrombin; peptide 2.03E-03 uM): 91.1 and 82.2 and 86.6 | Slope normalized to DMSO (proteolytic substrate cleavage over time) (human α-thrombin; peptide 2.54E-04 uM): 95.6 and 96.7 and 91.7 | Slope normalized to DMSO (proteolytic substrate cleavage over time) (human α-thrombin; peptide 2.60E-01 uM): 14.6 and 25.5 and 20.4 | Slope normalized to DMSO (proteolytic substrate cleavage over time) (human α-thrombin; peptide 3.18E-05 uM): 103.9 and 99.1 and 101.2 | Slope normalized to DMSO (proteolytic substrate cleavage over time) (human α-thrombin; peptide 3.26E-02 uM): 46.1 and 40.2 and 49.8 | Slope normalized to DMSO (proteolytic substrate cleavage over time) (human α-thrombin; peptide 4.07E-03 uM): 82.6 and 77.6 and 83.2 | Slope normalized to DMSO (proteolytic substrate cleavage over time) (human α-thrombin; peptide 5.09E-04 uM): 88.5 and 86.7 and 91.9 | Slope normalized to DMSO (proteolytic substrate cleavage over time) (human α-thrombin; peptide 5.21E-01 uM): 17.1 and 15.0 | Slope normalized to DMSO (proteolytic substrate cleavage over time) (human α-thrombin; peptide 6.36E-05 uM): 96.5 and 103.5 and 97.9 | Slope normalized to DMSO (proteolytic substrate cleavage over time) (human α-thrombin; peptide 6.51E-02 uM): 35.9 and 37.8 and 41.0 | Slope normalized to DMSO (proteolytic substrate cleavage over time) (human α-thrombin; peptide 7.95E-06 uM): 100.7 and 95.5 and 98.4 | Slope normalized to DMSO (proteolytic substrate cleavage over time) (human α-thrombin; peptide 8.14E-03 uM): 73.2 and 59.3 and 66.6 | IC50 (human α-thrombin; single replicates R1-R3, read-out: IC50, human alpha thrombin inhibition): 30.2 nM and 20 nM and 31.5 nM | remaining at 8 h [2]: 63 ± 6% | SIF stability, Residual peptide Average (porcine pancreatin; average of R1-R3): 62.79 | SIF stability, Residual peptide (porcine pancreatin; single replicates R1-R3): 66.10 and 55.58 and 66.70 | Ki (rat α-thrombin; average of R1-R3, read-out: Ki Average, rat alpha thrombin inhibition): 6.1 nM | Slope normalized to DMSO (proteolytic substrate cleavage over time) (rat α-thrombin; peptide 1.02E-03 uM): 78.7 and 76.8 and 72.0 | Slope normalized to DMSO (proteolytic substrate cleavage over time) (rat α-thrombin; peptide 1.04E+00 uM): 7.3 and 7.7 and 6.8 | Slope normalized to DMSO (proteolytic substrate cleavage over time) (rat α-thrombin; peptide 1.27E-04 uM): 95.1 and 95.2 and 91.8 | Slope normalized to DMSO (proteolytic substrate cleavage over time) (rat α-thrombin; peptide 1.30E-01 uM): 20.8 and 21.8 and 17.8 | Slope normalized to DMSO (proteolytic substrate cleavage over time) (rat α-thrombin; peptide 1.59E-05 uM): 100.8 and 100.5 and 95.6 | Slope normalized to DMSO (proteolytic substrate cleavage over time) (rat α-thrombin; peptide 1.63E-02 uM): 48.6 and 45.6 and 41.9 | Slope normalized to DMSO (proteolytic substrate cleavage over time) (rat α-thrombin; peptide 1.67E+01 uM): 5.6 and 6.1 and 3.4 | Slope normalized to DMSO (proteolytic substrate cleavage over time) (rat α-thrombin; peptide 2.03E-03 uM): 77.5 and 75.6 and 71.7 | Slope normalized to DMSO (proteolytic substrate cleavage over time) (rat α-thrombin; peptide 2.08E+00 uM): 5.5 and 7.4 and 5.0 | Slope normalized to DMSO (proteolytic substrate cleavage over time) (rat α-thrombin; peptide 2.54E-04 uM): 90.6 and 89.3 and 85.2 | Slope normalized to DMSO (proteolytic substrate cleavage over time) (rat α-thrombin; peptide 2.60E-01 uM): 14.5 and 13.9 and 10.9 | Slope normalized to DMSO (proteolytic substrate cleavage over time) (rat α-thrombin; peptide 3.18E-05 uM): 98.5 and 99.4 and 94.0 | Slope normalized to DMSO (proteolytic substrate cleavage over time) (rat α-thrombin; peptide 3.26E-02 uM): 34.9 (2×) and 30.9 | Slope normalized to DMSO (proteolytic substrate cleavage over time) (rat α-thrombin; peptide 3.33E+01 uM): 5.6 and 5.2 and 4.6 | Slope normalized to DMSO (proteolytic substrate cleavage over time) (rat α-thrombin; peptide 4.07E-03 uM): 74.5 and 73.2 and 65.7 | Slope normalized to DMSO (proteolytic substrate cleavage over time) (rat α-thrombin; peptide 4.17E+00 uM): 6.0 and 6.5 and 4.6 | Slope normalized to DMSO (proteolytic substrate cleavage over time) (rat α-thrombin; peptide 5.09E-04 uM): 86.5 and 86.6 and 79.6 | Slope normalized to DMSO (proteolytic substrate cleavage over time) (rat α-thrombin; peptide 5.21E-01 uM): 8.9 and 10.7 and 8.6 | Slope normalized to DMSO (proteolytic substrate cleavage over time) (rat α-thrombin; peptide 6.36E-05 uM): 95.0 and 93.8 and 92.2 | Slope normalized to DMSO (proteolytic substrate cleavage over time) (rat α-thrombin; peptide 6.51E-02 uM): 29.2 and 28.9 and 23.7 | Slope normalized to DMSO (proteolytic substrate cleavage over time) (rat α-thrombin; peptide 6.67E+01 uM): 6.0 and 6.3 and 4.0 | Slope normalized to DMSO (proteolytic substrate cleavage over time) (rat α-thrombin; peptide 7.95E-06 uM): 103.6 and 102.5 and 98.1 | Slope normalized to DMSO (proteolytic substrate cleavage over time) (rat α-thrombin; peptide 8.14E-03 uM): 62.2 and 57.8 and 53.3 | Slope normalized to DMSO (proteolytic substrate cleavage over time) (rat α-thrombin; peptide 8.33E+00 uM): 4.9 and 6.7 and 5.0 | IC50 (rat α-thrombin; single replicates R1-R3, read-out: IC50, rat alpha thrombin inhibition): 13 nM and 10.8 nM and 9.19 nM | SGF stability, Residual peptide Average (porcine pepsin; after 8 h vs 0 h (TIC), average of R1-R3): 99.21 | SGF stability, Residual peptide (porcine pepsin; after 8 h vs 0 h (TIC), single replicates R1-R3): 107.50 and 92.24 and 97.90 | remaining at 8 h (porcine pepsin; simulated gi fluid, 8 h, 37 °C, pH 1.2, read-out: Proteolytic stability: SGF (8 h) % remaining): 99 ± 8%
Structure (SMILES): O=C1C[C@H]2CCCN2C(=O)[C@H](Cc2ccccc2)NC(=O)[C@@H](NC(=O)c2ccc(Cl)s2)CCSC/C=C/CSCCN1 [compound 34]
Ki (human α-thrombin; single replicates R1-R3, read-out: Ki, human alpha thrombin inhibition): 23.3 nM (2×) and 15.4 nM (2×) and 24.2 nM (2×) | Ki (rat α-thrombin; single replicates R1-R3, read-out: Ki, rat alpha thrombin inhibition): 7.18 nM and 6.01 nM (2×) and 5.09 nM (2×) and 7.19 nM
